Experimental data published in patent US5998366A, “Method for ameliorating glutamic acid decarboxylase associated autoimmune disorders” (The Regents of the University of California, priority 1997, dated 1999).

Tests used:
spleen cells of NOD mice = assay: Proliferative recall response of spleen cells to β-cell antigens, by age; type: cell-based
Experimental: (§1) NOD (Taconic farms) and BALB/c mice (Jackson Laboratories) were kept under specific pathogen free conditions. The mice were sacrificed at the ages indicated and the spleen cells were tested directly ex vivo for their proliferative recall response to antigen. Single cell suspensions of spleen cells were plated at 1×10^6 cells per well in 96 well microtiter plates in 200 μl serum free HL-1 medium (Ventrex) that was supplemented with 2 mM glutamine with or without 10 μg/ml antigen (or 7 μM peptide) in triplicate cultures. During the last 16 h of the 72 h culture period, 1 μCi[^3 H]-thymidine was added per well. Incorporation of label was measured by liquid scintillation counting.
Both human GAD65 (Bu, et al., Proc. Natl. Acad. Sci., 89:2115-2119, 1992) and E. coli β-gal (control) were purified from recombinant bacteria on the basis of a hexahistidine tag which allows their rapid affinity purification by metal affinity chromatography (Hochuli, et al., Bio/Technology, 6:1321-1325, 1988). Bovine CPH was the generous gift of L. Fricker (Albert Einstein Col. Med.) and human insulin was purchased from Eli Lilly.

female NOD mice [1] = assay: Insulitis score after tolerance induction; type: in vivo; conditions: examined at 12 weeks
Experimental: (§2) 1. In these experiments female NOD mice were intravenously injected at 3 weeks of age with 50 μg GAD, μ-galactosidase, mycobacterial hsp65 (m-hsp) or 0.1 μg of the immunodominant hsp peptide (hsp-p), in PBS. At 12 weeks of age, mice were examined for insulitis and autoantigen reactive T-cells. At this age both indications are established in untreated NOD mice. Pancreatic tissue sections were stained by immunoperoxidase techniques for insulin and were counterstained with hematoxylin. Insulitis was scored in a blinded manner by examining 54 to 87 islets on 5 interrupted tissue sections from each pancreas. Proliferative splenic T-cell responses induced by various antigens were performed as described above in Example 4. Data in Table 8 are expressed as the average [^3 H]-thymidine label (cpm) incorporated in triplicate cultures.
2. In a second set of experiments neonatal female NOD mice were injected intraperitoneally IFA with peptide 11, a mixture of peptides 34 and 35 plus IFA, or with IFA alone and at 12 weeks of age the mice were examined for insulitis and autoantigen reactive T-cells as in Example 6.1. Proliferative splenic T-cell responses induced by the various antigens were performed as in Example 4, and data in Table 8B are expressed as the average [^3 H]-thymidine label (cpm) incorporated in triplicate cultures.
3. In a third set of experiments female NOD mice were intravenously injected at three weeks of age with peptide 11 (control), a mixture of peptides 34 and 35 plus IFA, or with HEL peptides and at 12 weeks of age the mice were examined for insulitis and autoantigen reactive T-cells as in Example 6.1. Proliferative splenic T-cell responses induced by the various antigens were performed as in Example 4, and data in Table 8C are expressed as the average [^3 H]-thymidine label (cpm) incorporated in triplicate cultures.

[2] = system: spleen cells of treated female NOD mice; assay: Proliferative splenic T-cell responses to antigens after tolerance induction; type: in vivo
Experimental: as §1
as §2, with “Proliferative splenic T-cell responses induced by various antigens were performed as described above in Example 4.” left out, “cultures. […]” for “cultures.”

female NOD mice [3] = assay: Long-term diabetes incidence, insulitis and βCA reactive T cells after GAD tolerization; type: in vivo
Experimental: as §2
Five GAD treated mice were sacrificed at 30 weeks of age.

female NOD mice [4] = assay: GAD immunization of 8 week old NOD mice, onset of IDDM; type: in vivo
Description: An IPTG inducible T7 expression vector was used to express both human GAD65 and E. coli b galactosidase (β-gal). In IPTG induced recombinant E. coli, GAD and β-gal constitute about 10-20% of the total bacterial protein. However, almost all of the GAD was in inclusion bodies, which could be isolated and extensively washed to obtain material that is about 80% GAD. We then did affinity purifications of GAD and β-gal on the basis of a hexa-histidine "tag" which was attached to GAD during the subcloning process. These extra histidine residues allow the rapid affinity purification (Novagen) of GAD by metal affinity chromatography (Hochuli, et al., Bio Technology, 6:1321-1325, 1988). The inclusion body material is solubilized in 6M guanidine hydrochloride (GHCL), 10 mm β-mercaptoethanol and 1% triton X-100. After binding to the column, the column was extensively washed with GHCL and 8M urea in phosphate buffers. Only the central peak GAD fraction was utilized for subsequent studies. Human GAD65 shares 96% amino acid sequence identity with murine GAD65, with most of the amino acid differences being conservative substitutions.
Breeder mice were purchased from Taconic Farms and housed under specific pathogen-free conditions. Only female NOD mice were used in this study. The average age of IDDM onset in unrelated females in the colony was 22 weeks. Insulitis is generally observed beginning at 4 weeks of age. T cell responses to GAD, HSP, CPH were found by 6 weeks in age. The incidence of IDDM in female mice is 70-90% by one year of age.
At 8 weeks of age, 25 ug GAD or control β-gal. was injected intraperftoneally (ip) in 100 ul of incomplete Freunds adjuvant (IFA). Because there may be a requirement for continual antigen presentation (Ramsdell, et al., Science, 257:1130-1133, 1992) mice were treated again every 6 weeks. Urine glucose levels were monitored twice weekly. After observing above normal glucose in urea, blood glucose levels were monitored twice weekly. Two consecutive blood glucose level readings of […] was considered as IDDM onset, after which the mice were sacrificed and spleen cells were tested as described above in Example 6 for evidence of spleen cell proliferation.

[5] = system: spleen cells of treated female NOD mice; assay: Proliferative splenic T-cell responses to antigens after tolerance induction; type: in vivo; conditions: Table 8A: i.v. at 3 weeks, tested at 12 weeks
[6] = five treated mice sacrificed at 30 weeks

Substance: GAD: human GAD65 purified from recombinant bacteria on the basis of a hexahistidine tag
- T cell proliferation in non-diseased spleen cells (spleen cells of NOD mice; <4 or >16 week old NOD or control BALB/c or (NOD/BALB/c)F1 spleen cells): did not induce T cell proliferation
- age at which the proliferative T-cell response to the antigen appeared (spleen cells of NOD mice; female NOD mice, 10 μg/ml antigen or 7 μM peptide, 72 h culture (FIG. 8)): 4 weeks
- Insulitis Score (female NOD mice [1]; Table 8A: i.v. injection at 3 weeks of age in PBS, scale 0-4, mean ± SE): 0.1 ± 0.1
- insulitis score of the completely tolerized mice (female NOD mice [1]; i.v. at 3 weeks): 0.0
- share of treated mice with no T-cell reactivity to GAD (complete tolerization) or to other βCAs ([2]; i.v. at 3 weeks, tested at 12 weeks): Seventy five percent
- weak residual GAD reactivity of the mice not completely tolerized ([2]; twenty five percent of the GAD-treated mice): about 3 SI
- insulitis at 30 weeks of age (female NOD mice [3]; [6]): four mice were completely free of insulitis
- βCA reactive T cells at 30 weeks of age (female NOD mice [3]; [6]): free of detectable βCA reactive T cells
- glucose levels of treated mice (female NOD mice [3]; n=17, presently 37 weeks old): normal glucose levels
- age until which 8 of the immunized mice showed no signs of hyperglycemia (female NOD mice [4]; 25 ug ip in IFA at 8 weeks, again every 6 weeks): 36 weeks
- treated mice remaining disease free at 52 weeks of age (female NOD mice [4]; 25 ug ip in IFA at 8 weeks, again every 6 weeks, 10 mice per group): Four
- significance of the delay or prevention of diabetes (female NOD mice [4]; versus β-gal immunized mice): < 0.02
- Spleen Cell Proliferation (SI ± SEM) CPH ([5]; recall antigen CPH): 1.1 ± 0.02 SI
- Spleen Cell Proliferation (SI ± SEM) GAD ([5]; recall antigen GAD): 1.6 ± 0.3 SI
- Spleen Cell Proliferation (SI ± SEM) GAD Peptides #17 ([5]; recall antigen GAD peptide #17): 1.0 ± 0.05 SI
- Spleen Cell Proliferation (SI ± SEM) GAD Peptides #34 ([5]; recall antigen GAD peptide #34): 1.2 ± 0.1 SI
- Spleen Cell Proliferation (SI ± SEM) GAD Peptides #35 ([5]; recall antigen GAD peptide #35): 1.0 ± 0.1 SI
- Spleen Cell Proliferation (SI ± SEM) hsp Peptide ([5]; recall antigen hsp peptide): 1.2 ± 0.1 SI
- Spleen Cell Proliferation (SI ± SEM) β-Gal ([5]; recall antigen β-Gal): 1.1 ± 0.03 SI
